Patent US6737383B1, “Herbicidal oxadiazolidines” (priority 1999, dated 2004)

Experiments:
[1] = test system: bedstraw; assay: Test B pre/postemergence bedstraw; format: in vivo, Galium aparine; conditions: for Bedstraw plant response rating: Postemergence; for Plant response rating, Bedstraw: Preemergence
Summary of the method: (§1)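 Herbicidal effect was estimated by eye on a ten-point control scale after plants spent twelve to sixteen days in a greenhouse following soil or foliar treatment. Foliar sprays targeted plants at one to four leaves; all doses were formulated in a non-phytotoxic solvent with surfactant.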

[2] = test system: blackgrass; assay: Test B pre/postemergence blackgrass; format: in vivo, Alopecurus myosuroides
Summary of the method: as §1

[3] = test system: surinam grass; assay: Test B pre/postemergence surinam grass; format: in vivo, Brachiaria decumbens
Summary of the method: as §1

[4] = test system: corn; assay: Test B pre/postemergence corn; format: in vivo, Zea mays
Summary of the method: as §1

[5] = test system: crabgrass; assay: Test B pre/postemergence crabgrass; format: in vivo, Digitaria sanguinalis
Summary of the method: as §1

[6] = test system: giant foxtail; assay: Test B pre/postemergence giant foxtail; format: in vivo, Setaria faberii
Summary of the method: as §1

[7] = test system: morningglory; assay: Test B pre/postemergence morningglory; format: in vivo, Ipomoea hederacea
Summary of the method: as §1

[8] = test system: pigweed; assay: Test B pre/postemergence pigweed; format: in vivo, Amaranthus retroflexus
Summary of the method: as §1

[9] = test system: rape; assay: Test B pre/postemergence rape; format: in vivo, Brassica napus
Summary of the method: as §1

[10] = test system: sugar beet; assay: Test B pre/postemergence sugar beet; format: in vivo, Beta vulgaris
Summary of the method: as §1

[11] = test system: wheat; assay: Test B pre/postemergence wheat; format: in vivo, Triticum aestivum
Summary of the method: as §1

[12] = test system: wild oat; assay: Test B pre/postemergence wild oat; format: in vivo, Avena fatua
Summary of the method: as §1

[13] = test system: purple nutsedge; assay: Test B pre/postemergence purple nutsedge; format: in vivo, Cyperus rotundus
Summary of the method: as §1

[14] = test system: rice; assay: Test B flood test rice; format: in vivo, Oryza sativa
Summary of the method: (§2)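 Read-out is a visual response score from 0 (no effect) to 10 (complete control), assigned by comparison with untreated controls. Treatment was applied at the 2-leaf stage, and plants stayed in the greenhouse for twelve to sixteen days before scoring.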

[15] = test system: smallflower flatsedge; assay: Test B flood test smallflower flatsedge; format: in vivo, Cyperus difformis
Summary of the method: as §2

[16] = test system: bamyardgrass; assay: Test B flood test barnyardgrass; format: in vivo, Echinochloa crus-galli
Summary of the method: as §2

[17] = Rate 62 g/ha, scale 0 to 10, 0 is no effect, 10 is complete control
[18] = Postemergence, Rate 62 g/ha, scale 0 to 10, 0 is no effect, 10 is complete control
[19] = Postemergence, Rate 250 g/ha, scale 0 to 10, 0 no effect, 10 complete control
[20] = Preemergence, Rate 62 g/ha, scale 0 to 10, 0 is no effect, 10 is complete control
[21] = Preemergence, Rate 125 g/ha, scale 0 to 10 (0 no effect, 10 complete control)
[22] = Preemergence, Rate 250 g/ha, scale of 0 to 10 where 0 is no effect and 10 is complete control
[23] = Preemergence, Rate 500 g/ha, scale 0 (no effect) to 10 (complete control)
[24] = Rate 125 g/ha, Postemergence, scale 0 to 10, 0 no effect, 10 complete control
[25] = Rate 500 g/ha, Postemergence, 0 to 10 scale (0 no effect, 10 complete control)
[26] = Rate 125 g/ha, Postemergence section (flood test species), scale 0 to 10, 0 no effect, 10 complete control
[27] = Rate 500 g/ha, Postemergence section of Table B, 0 to 10 scale (0 no effect, 10 complete control)
[28] = flood test, listed under Postemergence, Rate 250 g/ha, scale 0 to 10, 0 no effect, 10 complete control

`Cc1c(Cl)cccc1-n1c(=O)on(C(=O)N(c2ccc(F)cc2)C(C)C)c1=O` [Compound 21] was tested, and the “Bedstraw plant response rating” value [1, 17] was 0, the “Bedstraw plant response rating” value ([1]; Rate 250 g/ha, scale 0 to 10, 0 no effect, 10 complete control) was 0 and the “Plant response rating, Bedstraw” value [1, 17] was 0. For the same molecule, the “Plant response rating, Bedstraw” value ([1]; Rate 125 g/ha, scale 0 to 10 (0 no effect, 10 complete control)) was 0, the “Plant response rating, Bedstraw” value ([1]; Rate 250 g/ha, scale of 0 to 10 where 0 is no effect and 10 is complete control) was 0 and the “Bedstraw plant response rating” value ([1]; Rate 125 g/ha, scale 0 to 10, 0 no effect, 10 complete control) was 0. The “Bedstraw plant response rating” value ([1]; Rate 500 g/ha, 0 to 10 scale (0 no effect, 10 complete control)) was 6, the “Blackgrass plant response rating” value [2, 18] was 0 and the “Blackgrass plant response rating” value [2, 19] was 0. For the same molecule, the “Plant response rating, Blackgrass” value [2, 20] was 0, the “Plant response rating, Blackgrass” value [2, 21] was 0 and the “Plant response rating, Blackgrass” value [2, 22] was 0. For the same molecule, the “Blackgrass plant response rating” value [2, 23] was 0, the “Blackgrass plant response rating” value [2, 24] was 0 and the “Blackgrass plant response rating” value [2, 25] was 0. For the same molecule, the “B. signalgrass plant response rating” value [3, 18] was 0, the “B. signalgrass plant response rating” value [3, 19] was 0 and the “Plant response rating, B. signalgrass” value [3, 20] was 0. For the same molecule, the “Plant response rating, B. signalgrass” value [3, 21] was 0, the “Plant response rating, B. signalgrass” value [3, 22] was 0 and the “B. signalgrass plant response rating” value [3, 23] was 0. The “B. signalgrass plant response rating” value [3, 24] was 0, the “B. signalgrass plant response rating” value [3, 25] was 0 and the “Corn plant response rating” value [4, 18] was 0. For the same molecule, the “Corn plant response rating” value [4, 19] was 0, the “Plant response rating, Corn” value [4, 20] was 0 and the “Plant response rating, Corn” value [4, 21] was 0. For the same molecule, the “Plant response rating, Corn” value [4, 22] was 0, the “Corn plant response rating” value [4, 23] was 0 and the “Corn plant response rating” value [4, 24] was 0. The “Corn plant response rating” value [4, 25] was 3, the “Crabgrass plant response rating” value [5, 18] was 0 and the “Crabgrass plant response rating” value [5, 19] was 0. The “Plant response rating, Crabgrass” value [5, 20] was 4, the “Plant response rating, Crabgrass” value [5, 21] was 7 and the “Plant response rating, Crabgrass” value [5, 22] was 7. The “Crabgrass plant response rating” value [5, 23] was 7, the “Crabgrass plant response rating” value [5, 24] was 0 and the “Crabgrass plant response rating” value [5, 25] was 2. For the same molecule, the “Giant foxtail plant response rating” value [6, 18] was 0, the “Giant foxtail plant response rating” value [6, 19] was 0 and the “Plant response rating, Giant foxtail” value [6, 20] was 8. For the same molecule, the “Plant response rating, Giant foxtail” value [6, 21] was 8, the “Plant response rating, Giant foxtail” value [6, 22] was 8 and the “Giant foxtail plant response rating” value [6, 23] was 9. For the same molecule, the “Giant foxtail plant response rating” value [6, 24] was 0, the “Giant foxtail plant response rating” value [6, 25] was 2 and the “Morningglory plant response rating” value [7, 18] was 2. The “Morningglory plant response rating” value [7, 19] was 2, the “Plant response rating, Morningglory” value [7, 20] was 0 and the “Plant response rating, Morningglory” value [7, 21] was 0. For the same molecule, the “Plant response rating, Morningglory” value [7, 22] was 2, the “Morningglory plant response rating” value [7, 23] was 2 and the “Morningglory plant response rating” value [7, 24] was 2. The “Morningglory plant response rating” value [7, 25] was 8, the “Redroot pigweed plant response rating” value [8, 18] was 0 and the “Redroot pigweed plant response rating” value [8, 19] was 0. For the same molecule, the “Plant response rating, Redroot pigweed” value [8, 20] was 6, the “Plant response rating, Redroot pigweed” value [8, 21] was 6 and the “Plant response rating, Redroot pigweed” value [8, 22] was 6. The “Redroot pigweed plant response rating” value [8, 23] was 8, the “Redroot pigweed plant response rating” value [8, 24] was 0 and the “Redroot pigweed plant response rating” value [8, 25] was 0. For the same molecule, the “Rape plant response rating” value [9, 18] was 0, the “Rape plant response rating” value [9, 19] was 0 and the “Plant response rating, Rape” value [9, 20] was 0. For the same molecule, the “Plant response rating, Rape” value [9, 21] was 0, the “Plant response rating, Rape” value [9, 22] was 0 and the “Rape plant response rating” value [9, 23] was 0. For the same molecule, the “Rape plant response rating” value [9, 24] was 0, the “Rape plant response rating” value [9, 25] was 0 and the “Sugarbeets plant response rating” value [10, 18] was 0. For the same molecule, the “Sugarbeets plant response rating” value [10, 19] was 0, the “Plant response rating, Sugarbeets” value [10, 20] was 0 and the “Plant response rating, Sugarbeets” value [10, 21] was 0. The “Plant response rating, Sugarbeets” value [10, 22] was 3, the “Sugarbeets plant response rating” value [10, 23] was 8 and the “Sugarbeets plant response rating” value [10, 24] was 0. The “Wheat plant response rating” value [11, 18] was 0, the “Wheat plant response rating” value [11, 19] was 0 and the “Plant response rating, Wheat” value [11, 20] was 0. For the same molecule, the “Plant response rating, Wheat” value [11, 21] was 0, the “Plant response rating, Wheat” value [11, 22] was 0 and the “Wheat plant response rating” value [11, 23] was 0. The “Wheat plant response rating” value [11, 24] was 0, the “Wild oats plant response rating” value [12, 18] was 0 and the “Wild oats plant response rating” value [12, 19] was 0. For the same molecule, the “Plant response rating, Wild oats” value [12, 21] was 0, the “Plant response rating, Wild oats” value [12, 22] was 0 and the “Wild oats plant response rating” value [12, 23] was 0. For the same molecule, the “Wild oats plant response rating” value [12, 24] was 0, the “Nutsedge plant response rating” value [13, 18] was 0 and the “Nutsedge plant response rating” value [13, 19] was 0. For the same molecule, the “Plant response rating, Nutsedge” value [13, 20] was 0, the “Plant response rating, Nutsedge” value [13, 21] was 0 and the “Plant response rating, Nutsedge” value [13, 22] was 0. The “Nutsedge plant response rating” value [13, 23] was 0, the “Nutsedge plant response rating” value [13, 24] was 0 and the “Nutsedge plant response rating” value [13, 25] was 0. For the same molecule, the “Rice plant response rating” value [14, 18] was 0, the “Rice plant response rating” value [14, 26] was 0 and the “Rice plant response rating” value [14, 27] was 0. For the same molecule, the “Rice plant response rating” value [14, 28] was 0, the “S. Flatsedge plant response rating” value [15, 18] was 0 and the “S. Flatsedge plant response rating” value [15, 26] was 0. For the same molecule, the “S. Flatsedge plant response rating” value [15, 28] was 0, the “Barnyardgrass plant response rating” value [16, 18] was 0 and the “Barnyardgrass plant response rating” value [16, 26] was 0. For the same molecule, the “Barnyardgrass plant response rating” value [16, 27] was 0 and the “Barnyardgrass plant response rating” value [16, 28] was 0.
